Tests used:
[1] = system: pChk1(Ser296) in SW620 cells; experiment: pChk1(Ser296) sandwich ELISA, cell-based on-target kinase activity; conditions: Homo sapiens, SW-620, neocarzinostatin 7.5 μM, 2 hours, read-out: SW620 pIC50 (converted)
Protocol: ELISA assays were performed as per the manufacturer's protocol. […] Selected compounds of the invention were tested as a 8-point concentration response up to a maximum concentration of either 1 μM, 3 μM or 10 μM. The percent (%) effect i.e. inhibition at each concentration of compound was calculated based on, and relative to, the amount of inhibition produced in the vehicle control and inhibited control wells contained within each plate.

[2] = target: T1, RSK1 (Homo sapiens, UniProt Q15418); experiment: RSK1-4 kinase assay (Eurofins KinaseProfiler, radiometric): RSK1; format: biochemical; conditions: approximately ATP Km
T1 construct: purchased Eurofins (KinaseProfiler service)
T1 sequence (Q15418 whole entry): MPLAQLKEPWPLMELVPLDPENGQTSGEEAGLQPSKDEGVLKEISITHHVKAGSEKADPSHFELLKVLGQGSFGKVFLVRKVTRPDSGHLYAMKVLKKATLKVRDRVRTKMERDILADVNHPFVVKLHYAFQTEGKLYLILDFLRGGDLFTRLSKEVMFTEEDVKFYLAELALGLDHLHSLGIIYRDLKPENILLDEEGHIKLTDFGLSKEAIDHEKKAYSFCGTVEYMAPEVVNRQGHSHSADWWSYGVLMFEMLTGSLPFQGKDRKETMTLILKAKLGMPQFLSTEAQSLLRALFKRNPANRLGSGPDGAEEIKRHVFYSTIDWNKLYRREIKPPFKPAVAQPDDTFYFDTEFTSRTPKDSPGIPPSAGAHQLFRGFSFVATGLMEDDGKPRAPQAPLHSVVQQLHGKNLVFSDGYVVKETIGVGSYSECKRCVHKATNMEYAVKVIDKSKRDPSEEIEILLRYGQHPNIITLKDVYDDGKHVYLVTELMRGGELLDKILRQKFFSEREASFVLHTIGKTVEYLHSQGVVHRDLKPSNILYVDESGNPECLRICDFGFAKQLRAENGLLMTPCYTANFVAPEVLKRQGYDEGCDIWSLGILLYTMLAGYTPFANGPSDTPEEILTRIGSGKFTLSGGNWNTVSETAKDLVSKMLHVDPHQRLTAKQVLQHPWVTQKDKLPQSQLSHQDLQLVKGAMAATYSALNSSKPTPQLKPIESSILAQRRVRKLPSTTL
Text: (§1) The radiometric kinase activity assays were run at approximately the ATP Km for each kinase and the IC50 data is shown in Table 24.

[3] = Determination of CNS penetration in vivo, unbound brain to plasma ratio (Kpuu); conditions: male, Sprague Dawley, rat, iv, 1 mg/kg
Protocol: Male Sprague Dawley Rats 300-350 g (Charles River, UK) were group housed, n=2, under a 12 h light/dark cycle with food and water available ad libitum. Two days prior to dosing, animals were anaesthetised with inhaled isoflurane, and the right jugular vein was exposed and surgically cannulated. Animals were then housed singly for recovery, and throughout the remaining procedure. On the day of dosing animals were weighed, tail marked and dosed intravenously via the indwelling cannula with compound at 0.25 mg/kg in a volume of 3 mL/kg. Animals were culled at 15 min post dose via intravenous administration of pentobarbital. Post-mortem blood was withdrawn via cardiac puncture, and briefly stored in K2 EDTA blood tubes on ice before being spun at 14,000 g for 4 min at 4° C. Plasma was withdrawn into a 96 well plate, placed on dry ice and stored at −80° C. Brains were quickly dissected and placed on dry ice before storage at −80° C.
Following dosing of test compound (intravenous) to Male Sprague-Dawley Rats, animals are sacrificed at 15 min timepoint. Plasma is isolated from whole blood following cardiac exsanguination by centrifugal blood fractionation and whole brains isolated. Samples are stored on-ice and transferred to the Bioanalytical lab storage at −80° C. Bioanalysis of plasma and brain samples is performed as detailed below. […]
Samples were analysed by UPLC-MS/MS on either an AB Sciex API6500 QTrap or Waters TQ-S mass spectrometer using previously optimised analytical MRM (multiple reaction monitoring) methods, specific to the test compound.
The concentration of test compound in isolated samples was determined following analysis of the samples against the two replicates of the calibration line, injected before and after the sample set with an appropriate regression and weighting used. Only calibrators within ±15% of the expected test concentration value were included in the calibration line (±20% at the LLoQ) and any samples that fell outside of the limits of the calibration line were deemed to be less than or above the limit of quantification (LLoQ/ALoQ). […]

[4] = target: T2, RSK2 (Homo sapiens, UniProt P51812); experiment: RSK1-4 kinase assay (Eurofins KinaseProfiler, radiometric): RSK2; format: biochemical; conditions: approximately ATP Km
T2 construct: purchased Eurofins (KinaseProfiler service)
T2 sequence (P51812 whole entry): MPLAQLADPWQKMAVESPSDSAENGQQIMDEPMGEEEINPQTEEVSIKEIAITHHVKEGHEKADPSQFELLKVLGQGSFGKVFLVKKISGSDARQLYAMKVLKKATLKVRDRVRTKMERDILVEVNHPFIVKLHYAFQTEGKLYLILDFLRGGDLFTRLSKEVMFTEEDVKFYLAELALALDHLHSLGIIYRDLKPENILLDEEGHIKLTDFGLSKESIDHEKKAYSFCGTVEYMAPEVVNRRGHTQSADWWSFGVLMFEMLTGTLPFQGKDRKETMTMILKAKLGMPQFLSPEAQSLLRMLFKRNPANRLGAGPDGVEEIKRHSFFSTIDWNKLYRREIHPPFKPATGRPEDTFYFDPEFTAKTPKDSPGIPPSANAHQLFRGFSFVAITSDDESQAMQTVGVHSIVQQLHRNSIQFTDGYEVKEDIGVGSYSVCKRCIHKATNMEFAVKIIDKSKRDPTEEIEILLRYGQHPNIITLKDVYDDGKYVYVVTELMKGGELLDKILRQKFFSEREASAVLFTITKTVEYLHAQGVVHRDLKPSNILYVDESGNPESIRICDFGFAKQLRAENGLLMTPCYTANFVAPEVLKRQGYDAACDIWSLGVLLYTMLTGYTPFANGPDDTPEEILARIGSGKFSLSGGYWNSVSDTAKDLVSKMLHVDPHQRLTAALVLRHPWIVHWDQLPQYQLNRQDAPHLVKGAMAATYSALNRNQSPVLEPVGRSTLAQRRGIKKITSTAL
Text: as §1

[5] = target: T3, RSK3 (Homo sapiens, UniProt Q15349); experiment: RSK1-4 kinase assay (Eurofins KinaseProfiler, radiometric): RSK3; format: biochemical; conditions: approximately ATP Km
T3 construct: purchased Eurofins (KinaseProfiler service)
T3 sequence (Q15349 whole entry): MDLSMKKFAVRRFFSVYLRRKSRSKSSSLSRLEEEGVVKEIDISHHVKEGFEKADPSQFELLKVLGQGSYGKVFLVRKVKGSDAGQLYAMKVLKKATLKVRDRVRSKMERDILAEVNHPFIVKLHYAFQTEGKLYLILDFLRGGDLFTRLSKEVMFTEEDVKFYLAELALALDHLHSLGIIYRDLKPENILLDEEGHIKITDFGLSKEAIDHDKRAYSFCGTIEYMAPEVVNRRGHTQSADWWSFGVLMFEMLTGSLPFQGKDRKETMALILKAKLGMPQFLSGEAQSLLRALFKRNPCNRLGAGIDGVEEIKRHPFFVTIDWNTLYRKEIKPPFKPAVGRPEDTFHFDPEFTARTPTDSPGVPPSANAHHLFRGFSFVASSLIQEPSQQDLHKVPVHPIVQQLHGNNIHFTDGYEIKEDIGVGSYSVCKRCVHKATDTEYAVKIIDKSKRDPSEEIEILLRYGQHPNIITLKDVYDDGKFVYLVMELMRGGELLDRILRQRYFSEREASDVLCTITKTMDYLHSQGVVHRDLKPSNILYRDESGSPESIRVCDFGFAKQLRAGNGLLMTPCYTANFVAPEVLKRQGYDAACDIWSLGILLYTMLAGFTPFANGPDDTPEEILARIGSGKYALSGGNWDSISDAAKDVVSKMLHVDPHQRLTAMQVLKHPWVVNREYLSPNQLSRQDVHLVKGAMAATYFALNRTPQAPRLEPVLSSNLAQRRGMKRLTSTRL
Text: as §1

[6] = system: GBM LN18 cells; experiment: In vitro cell viability assay (Cell Titre Glo, 72 hours); format: cell-based; conditions: Homo sapiens, LN-18, read-out: LN18 pIC50 (converted)
In short: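 LN18 glioblastoma cells were exposed to compound for 72 h in a 10-point concentration series up to 10 μM. Viability was read as cellular ATP by CellTiter-Glo luminescence, and % inhibition was calculated against the vehicle and inhibited control wells on each plate.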

[7] = target: T4, RSK4 (Homo sapiens, UniProt Q9UK32); experiment: RSK1-4 kinase assay (Eurofins KinaseProfiler, radiometric): RSK4; format: biochemical; conditions: approximately ATP Km
T4 construct: purchased Eurofins (KinaseProfiler service)
T4 sequence (Q9UK32 whole entry): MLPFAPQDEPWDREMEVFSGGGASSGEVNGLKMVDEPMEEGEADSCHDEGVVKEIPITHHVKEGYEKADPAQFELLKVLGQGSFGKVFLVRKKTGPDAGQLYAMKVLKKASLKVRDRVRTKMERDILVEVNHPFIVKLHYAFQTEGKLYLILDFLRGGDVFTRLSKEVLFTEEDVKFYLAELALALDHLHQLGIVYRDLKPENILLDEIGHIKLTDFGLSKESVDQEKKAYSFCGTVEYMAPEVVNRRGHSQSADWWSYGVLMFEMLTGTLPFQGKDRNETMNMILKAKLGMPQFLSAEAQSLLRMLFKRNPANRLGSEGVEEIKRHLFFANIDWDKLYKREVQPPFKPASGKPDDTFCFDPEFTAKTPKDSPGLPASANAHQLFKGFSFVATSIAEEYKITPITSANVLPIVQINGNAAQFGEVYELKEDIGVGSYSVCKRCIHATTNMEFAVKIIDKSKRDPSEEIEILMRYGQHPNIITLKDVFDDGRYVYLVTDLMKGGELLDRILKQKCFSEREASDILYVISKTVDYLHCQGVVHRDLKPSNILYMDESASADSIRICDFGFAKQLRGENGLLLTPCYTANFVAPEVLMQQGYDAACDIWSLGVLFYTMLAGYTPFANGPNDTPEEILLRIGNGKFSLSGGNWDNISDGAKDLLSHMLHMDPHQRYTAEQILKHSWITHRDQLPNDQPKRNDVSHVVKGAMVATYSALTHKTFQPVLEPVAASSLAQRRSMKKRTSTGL
Text: as §1

[8] = target: T5, human Chk1 kinase (Homo sapiens, UniProt O14757); experiment: biochemical
T5 sequence (O14757 1-476): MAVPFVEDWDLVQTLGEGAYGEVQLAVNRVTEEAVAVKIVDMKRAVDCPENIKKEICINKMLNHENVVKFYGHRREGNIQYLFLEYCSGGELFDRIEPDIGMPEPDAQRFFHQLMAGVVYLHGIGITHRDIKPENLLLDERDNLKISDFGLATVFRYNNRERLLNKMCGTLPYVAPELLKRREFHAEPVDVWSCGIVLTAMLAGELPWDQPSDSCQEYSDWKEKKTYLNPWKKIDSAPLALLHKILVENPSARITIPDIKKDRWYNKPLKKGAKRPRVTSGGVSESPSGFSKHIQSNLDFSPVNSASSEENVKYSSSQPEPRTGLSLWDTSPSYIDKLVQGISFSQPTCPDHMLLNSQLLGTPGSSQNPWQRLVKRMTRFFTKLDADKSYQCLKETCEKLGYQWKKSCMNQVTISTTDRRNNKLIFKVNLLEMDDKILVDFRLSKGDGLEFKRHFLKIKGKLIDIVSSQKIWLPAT

[9] = system: 373 human wild-type kinases; experiment: Kinome selectivity, Eurofins KinaseProfiler kinase screen; format: biochemical; conditions: panel of 373 human wild-type kinases, approximately ATP Km, top concentration 10 μM
Text: The radiometric kinase activity assays were run at approximately the ATP Km for each kinase.

[10] = target: human Chk2 kinase (Homo sapiens, UniProt O96017); experiment: biochemical
Sequence of human Chk2 kinase (O96017 whole entry): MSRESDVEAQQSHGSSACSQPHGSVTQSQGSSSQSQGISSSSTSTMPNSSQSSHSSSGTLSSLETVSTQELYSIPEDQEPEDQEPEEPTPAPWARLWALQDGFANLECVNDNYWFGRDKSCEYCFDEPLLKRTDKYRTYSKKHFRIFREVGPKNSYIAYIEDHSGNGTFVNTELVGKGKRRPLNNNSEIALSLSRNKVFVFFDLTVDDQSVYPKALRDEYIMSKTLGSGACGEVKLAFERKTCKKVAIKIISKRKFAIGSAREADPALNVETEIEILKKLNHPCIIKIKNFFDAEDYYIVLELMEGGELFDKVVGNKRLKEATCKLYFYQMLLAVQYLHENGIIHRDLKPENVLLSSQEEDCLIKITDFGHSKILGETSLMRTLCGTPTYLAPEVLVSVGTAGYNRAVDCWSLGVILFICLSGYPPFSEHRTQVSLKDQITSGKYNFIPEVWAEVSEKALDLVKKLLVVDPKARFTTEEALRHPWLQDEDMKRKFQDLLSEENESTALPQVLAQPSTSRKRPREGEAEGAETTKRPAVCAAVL

SMILES | IC50 [1] [µM] | IC50 [2] [µM] | Kp uu at 0.25 h [3] | IC50 [4] [µM] | IC50 [5] [µM] | IC50 [6] [µM] | IC50 [7] [µM] | IC50 [8] [µM] | Number of 372 kinases inhibited relative to Chk1 IC50 Within 10-fold [9] | Number of 372 kinases inhibited relative to Chk1 IC50 Within 100-fold [9] | IC50 [10] [µM]
CN(C)[C@@H]1CCN(c2ccc(-n3cnc(Nc4cnc(C#N)cn4)c3)nc2)C1 [Example 50, (R)-5-((1-(5-(3-(Dimethylamino)pyrrolidin-1-yl)pyridin-2-yl)-1H-imidazol-4-yl)amino)pyrazine-2-carbonitrile] | < 1 | 4.47 | 0.5 | 6.67 | 1.02 | < 1 | 3.14 |  |  |  | 
C[C@@H]1C[C@@H](N2CCC2)CN1c1ccc(-n2cnc(Nc3cnc(C#N)cn3)c2)cc1 [Example 98, 5-((1-(4-((2R,4R)-4-(Azetidin-1-yl)-2-methylpyrrolidin-1-yl)phenyl)-1H-imidazol-4-yl)amino)pyrazine-2-carbonitrile] | < 1 | 3.55 | 0.8 | 0.786 | 0.651 | < 1 | 2.47 |  |  |  | 
CN1CCN(c2ccc(-n3cnc(Nc4cnc(C#N)cn4)c3)cc2)CC1 [Example 143, 5-((1-(4-(4-Methylpiperazin-1-yl)phenyl)-1H-imidazol-4-yl)amino)pyrazine-2-carbonitrile] |  | 9.45 | 0.4 | 3.04 | 2.07 |  | > 10 | 0.01 to 0.0316 | 3 | 10 | 10 to 100

— patent US20260132140A1, “IMIDAZOLYL-AMINO-PYRAZINE-CARBONITRILS AS CHK-1 INHIBITORS” (BenevolentAI Bio Limited, priority 2022, published 2026)
